Experimental data as given in PubChem BioAssay (NCI).
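Cells were grown in 96-well plates and exposed to each compound for 48 hours at five concentrations; endpoints were interpolated linearly between bracketing concentrations, or set to the highest concentration if not reached. Here, GI50 denotes the concentration required for 50% inhibition of growth. At the TGI there is no net growth.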

Experiments:
Assay in all cases: NCI anticancer screen, dose series, 48 h
NCI-H460 lung = tested on: NCI-H460 lung
HT29 colon = tested on: HT29 colon
MOLT-4 leukemia = tested on: MOLT-4 leukemia
UACC-62 melanoma = tested on: UACC-62 melanoma
OVCAR-5 ovarian = tested on: OVCAR-5 ovarian
RPMI-8226 leukemia = tested on: RPMI-8226 leukemia
A549 NSCLC = tested on: A549 NSCLC
ACHN renal = tested on: ACHN renal
MDA-MB-435 = tested on: MDA-MB-435
BT-549 breast = tested on: BT-549 breast

SMILES	TGI (NCI-H460 lung)	TGI (HT29 colon)	TGI (MOLT-4 leukemia)	TGI (UACC-62 melanoma)	TGI (OVCAR-5 ovarian)	TGI (RPMI-8226 leukemia)	TGI (A549 NSCLC)	TGI (ACHN renal)	TGI (MDA-MB-435)	TGI (BT-549 breast)	GI50 (HT29 colon)	GI50 (MOLT-4 leukemia)	GI50 (MDA-MB-435)	GI50 (UACC-62 melanoma)	GI50 (RPMI-8226 leukemia)	GI50 (A549 NSCLC)	GI50 (BT-549 breast)	GI50 (ACHN renal)
CCOC(=O)CSc1ccnc(=O)[nH]1	> 100 µM	> 100 µM	> 100 µM	> 100 µM	> 100 µM	> 100 µM	> 100 µM	> 100 µM	–	–	–	–	–	–	–	–	–	–
NC(=S)NNC(=O)/C(=C/c1ccc(/C=C(\NC(=O)c2ccccc2)C(=O)NNC(N)=S)cc1)NC(=O)c1ccccc1	> 100 µM	> 100 µM	> 50.8 µM	> 100 µM	> 100 µM	> 70.2 µM	> 100 µM	> 100 µM	–	–	–	–	–	–	–	–	–	–
O=C(NO)c1ccc([N+](=O)[O-])cc1	> 100 µM	> 100 µM	> 100 µM	50.5 µM	–	> 100 µM	> 100 µM	–	–	–	–	–	–	–	–	–	–	–
CCCCCCn1c(SCC)c2ccccc2c1-c1nc(F)nc(F)n1	> 100 µM	> 100 µM	> 100 µM	–	> 100 µM	> 100 µM	> 100 µM	> 100 µM	–	–	–	–	–	–	–	–	–	–
O=P(O)(OCC(O)O)OCC(O)O	> 100 µM	> 100 µM	> 100 µM	–	> 100 µM	> 100 µM	> 100 µM	> 100 µM	–	–	–	–	–	–	–	–	–	–
COc1ccc(/C=C2\OC(=O)C(Cl)=C2c2ccc(OC)cc2)cc1	> 100 µM	> 100 µM	> 100 µM	> 100 µM	–	> 100 µM	> 100 µM	> 100 µM	> 100 µM	> 100 µM	–	–	–	–	–	–	–	–
O=C1NC(N2CCOCC2)=N/C1=C\c1cccs1	–	> 100 µM	> 100 µM	> 100 µM	> 100 µM	> 100 µM	> 100 µM	> 100 µM	> 100 µM	> 100 µM	–	–	–	–	–	–	–	–
c1ccc(Nc2nnc(CSc3nc(-c4ccccc4)c(-c4ccccc4)[nH]3)s2)cc1	36.3 µM	30.6 µM	29.8 µM	–	43.6 µM	50.4 µM	73.3 µM	> 100 µM	–	–	–	–	–	–	–	–	–	–
O=S(=O)([O-])[O-].[Fe+2].c1ccc(/C(=N\Nc2ccccn2)c2ccccn2)cc1	8.55 µM	22.7 µM	6.13 µM	5.29 µM	7.07 µM	12.4 µM	8.82 µM	5.35 µM	–	–	–	–	–	–	–	–	–	–
NC(=O)OCC(COc1ccc(Cl)cc1)OC(=O)c1ccccc1Cl (stereo not given)	30.9 µM	33.2 µM	56.6 µM	31.4 µM	62.8 µM	51.6 µM	75.8 µM	95.1 µM	–	–	–	–	–	–	–	–	–	–
NCC1(N2CCOCC2)C2CCCC21CO (stereo not given)	> 100 µM	> 100 µM	> 100 µM	–	> 100 µM	> 100 µM	> 100 µM	> 100 µM	–	–	–	–	–	–	–	–	–	–
CC(C)=CCCC1(C)C=Cc2c(c(C)cc3c2[nH]c2cc(O)ccc23)O1 (stereo not given)	> 25 µM	> 25 µM	> 25 µM	> 25 µM	> 25 µM	> 25 µM	> 25 µM	> 25 µM	–	–	–	–	–	–	–	–	–	–
N#CC1(C#N)C2CCCCC23OC(=N)C1(C#N)C(c1ccco1)O3 (stereo not given)	> 100 µM	> 100 µM	> 100 µM	36.4 µM	61.8 µM	–	> 100 µM	94.2 µM	52.8 µM	30.3 µM	–	–	–	–	–	–	–	–
CC1CC2OC(=O)C3CC(O)CC(=C23)[C@@]12C[C@@H](c1ccoc1)OC2=O (stereo not given in full)	> 100 µM	> 100 µM	> 100 µM	> 100 µM	> 100 µM	> 100 µM	> 100 µM	> 100 µM	–	–	–	–	–	–	–	–	–	–
COc1cc(/C=C\c2ccccn2)cc(OC)c1OC	> 100 µM	> 100 µM	> 100 µM	> 100 µM	> 100 µM	> 100 µM	> 100 µM	> 100 µM	–	–	–	–	–	–	–	–	–	–
CSc1nc2ccccc2c(=O)n1/N=C1\C(=O)N(CN2CCCCC2)c2ccc(Cl)cc21	> 100 µM	> 100 µM	39.9 µM	> 100 µM	> 100 µM	–	> 100 µM	> 100 µM	> 100 µM	80.7 µM	–	–	–	–	–	–	–	–
CC#COP(=O)(OCC)OCC	> 100 µM	> 100 µM	> 100 µM	> 100 µM	> 100 µM	> 100 µM	> 100 µM	> 100 µM	–	–	–	–	–	–	–	–	–	–
CCOC(C[C@H](O)[C@H]1COC(=S)S1)OCC	> 100 µM	> 100 µM	–	> 100 µM	–	> 100 µM	> 100 µM	> 100 µM	–	–	–	–	–	–	–	–	–	–
COc1ccc2c(c1)CC[C@@H]1[C@@H]2CC[C@]2(C)C(=O)C3(CCCCC3)C[C@@H]12	–	> 100 µM	> 100 µM	> 100 µM	–	> 100 µM	> 100 µM	> 100 µM	> 100 µM	> 100 µM	79.5 µM	> 100 µM	> 100 µM	> 100 µM	> 100 µM	> 100 µM	> 100 µM	> 100 µM
O=C1C/C(=C/c2ccc(/C=C3/CC(=O)N(c4cccc(Br)c4)C3=O)cc2)C(=O)N1c1cccc(Br)c1	> 100 µM	> 100 µM	98.6 µM	> 100 µM	> 100 µM	> 100 µM	> 100 µM	> 100 µM	–	–	–	–	–	–	–	–	–	–
COc1cc(NC(C)=O)c2[nH]c3c(C)cc(NC(C)=O)c(C)c3c2c1	> 100 µM	> 100 µM	> 100 µM	–	–	> 100 µM	> 100 µM	> 100 µM	–	–	–	–	–	–	–	–	–	–
COc1ccccc1C1CC(=O)CC(c2ccccc2OC)C12C(=O)NC(=S)NC2=O (stereo not given)	> 100 µM	> 100 µM	95.8 µM	> 100 µM	> 100 µM	52.7 µM	–	> 100 µM	94.3 µM	> 100 µM	–	–	–	–	–	–	–	–
COC(=O)[C@H](Cc1ccccc1)NC(=O)NCCN(CCNC(=O)N[C@@H](Cc1ccccc1)C(=O)OC)C(=O)N[C@@H](Cc1ccccc1)C(=O)OC	34.8 µM	–	45 µM	49.8 µM	35.2 µM	46.3 µM	54.3 µM	51.6 µM	45 µM	39.2 µM	–	–	–	–	–	–	–	–
CC1C2CC(CC(=O)N2)C1(C)C (stereo not given)	> 100 µM	> 100 µM	–	> 100 µM	> 100 µM	–	> 100 µM	> 100 µM	> 100 µM	> 100 µM	–	–	–	–	–	–	–	–
COc1cc(OCc2ccc3nc(-c4ccccc4)c(N)nc3c2)cc(OC)c1OC	39.7 µM	–	28.8 µM	28.2 µM	55.3 µM	31.3 µM	61.2 µM	63.8 µM	51.2 µM	49 µM	–	–	–	–	–	–	–	–
